Results as given in US5747523A, “Substituted ethyl α,α-diarylmethyl ether derivatives” (Guilford Pharmaceuticals Inc., priority 1996, dated 1998).

How the values were obtained:
[1] = target: T1, human dopamine transporter (Homo sapiens, UniProt Q01959); assay: [3H]dopamine uptake inhibition in hDAT cells; format: cell-based; conditions: hDAT CHO cells; 100 nM [3H]dopamine; 2 h pre-incubation at 37° C., 6 min at room temperature; read-out: Effect on Dopamine Uptake (Kiuptake)
T1 construct: expressed in transfected cells

[2] = target: T2, cocaine binding site of the human dopamine transporter (Homo sapiens, UniProt Q01959); assay: [3H]CFT binding (cocaine analogue displacement at the cocaine site of DAT); conditions: hDAT CHO cells; 5 nM [3H]CFT; 2 h pre-incubation at 37° C., 6 min at room temperature
T2 construct: expressed in transfected cells

[3] = target: T1, human dopamine transporter; assay: uptake to binding ratio (Kiuptake/Kibinding); conditions: hdat cho cells
Method: The experimental procedures for the assay of compounds are as follows.
All assays were performed using Chinese Hamster Ovary cells stably expressing the human dopamine transporter cDNA (HDAT cells). hDAT cells were distributed in 96-well plates and grown 3 to 4 days to confluency (~10^5 cells/well) in Ham's F12 medium containing 10% fetal calf serum.

[4] = tested on: MPTP induced toxicity; conditions: mice; literature; cited from earlier work
[5] = tested on: mesolimbic dopamine neurons; conditions: rat; literature; cited from earlier work

T1 sequence (Q01959 whole entry): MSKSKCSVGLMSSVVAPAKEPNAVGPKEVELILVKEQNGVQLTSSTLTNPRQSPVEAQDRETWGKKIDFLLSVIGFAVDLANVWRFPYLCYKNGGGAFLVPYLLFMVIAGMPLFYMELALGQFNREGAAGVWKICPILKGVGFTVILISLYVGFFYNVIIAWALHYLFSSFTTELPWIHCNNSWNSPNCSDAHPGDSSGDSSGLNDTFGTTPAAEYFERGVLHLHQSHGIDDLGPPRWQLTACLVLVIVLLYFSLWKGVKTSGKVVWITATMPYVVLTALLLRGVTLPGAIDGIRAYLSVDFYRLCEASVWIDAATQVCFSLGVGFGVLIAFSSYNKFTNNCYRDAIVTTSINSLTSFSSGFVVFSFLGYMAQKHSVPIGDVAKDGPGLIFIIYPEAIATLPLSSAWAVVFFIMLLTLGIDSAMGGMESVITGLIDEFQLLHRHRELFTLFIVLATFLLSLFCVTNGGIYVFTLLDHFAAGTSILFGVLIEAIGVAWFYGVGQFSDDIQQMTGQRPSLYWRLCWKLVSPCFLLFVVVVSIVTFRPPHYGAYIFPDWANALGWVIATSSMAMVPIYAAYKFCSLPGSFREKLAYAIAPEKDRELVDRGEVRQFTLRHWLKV
T2 sequence (Q01959 whole entry): as above

| Structure (SMILES) | Ki [1] | Ki [2] | Uptake to Binding Ratio (Kiuptake/Kibinding) [3] | preventing MPTP induced toxicity [4] | attenuation of cocaine-induced activation of mesolimbic dopamine neurons [5] |
| --- | --- | --- | --- | --- | --- |
| Fc1ccc(C(OCCN2CCCCC2)c2ccc(F)cc2)cc1 [1-[2-[Bis(4-fluorophenyl)methoxy]ethyl]piperidine] | 609 nM | 211 nM | 2.896 |  |  |
| Fc1ccc(C(OCCN2CCCC2)c2ccc(F)cc2)cc1 [1-[2-[Bis(4-fluorophenyl)methoxy]ethyl]pyrrolidine] | 947 nM | 361 nM | 2.623 |  |  |
| CS(=O)(=O)O.CS(=O)(=O)O.Fc1ccc(CCCN2CCN(CCOC(c3ccc(F)cc3)c3ccc(F)cc3)CC2)cc1 [GBR 13,098] |  |  |  | effective at preventing MPTP induced toxicity |  |
| Fc1ccc(C(OCCN2CCN(CCCc3ccccc3)CC2)c2ccc(F)cc2)cc1 [GBR 12909] |  |  |  |  | attenuate cocaine-induced activation of mesolimbic dopamine neurons |
